Reference: patent publication US20210093626A1 (priority 2018, published 2021)

Experiments:
[1] = tested on: N2a, ScN2a, GT1, ScGT1 cells
[2] = tested on: PrP^Sc in GT1 cells chronically infected with RML prion (ScGT1); assay type: cell-based, mouse; settings: drug 20 μM, 4 days, vs vehicle control, densitometry normalized to β-actin
[3] = tested on: PrP^Sc in GT1 cells chronically infected with 22L prion strain (ScGT1 22L); assay type: cell-based, mouse; settings: ScGT1 cells infected with 22L prion strain, drug 20 μM, 4 days, vs vehicle control
[4] = tested on: PrP^Sc in N2a cells chronically infected with RML prion strain (ScN2a); assay type: cell-based, mouse

| Compound | citotoxicity assessment [1] | reduction of PrP^Sc accumulation/levels [2] | reduction of PrP^Sc levels [3] | reduction in PrP^Sc levels ([4]; RML-infected ScN2a cells, drug 20 μM, 4 days, vs vehicle control) | PrP^Sc reduction with compound dissolved in different drug vehicles ([4]; ScN2a cells, vehicles PBS, H2O, NaCl and DMSO) |
| --- | --- | --- | --- | --- | --- |
| Nc1c(C(=O)c2c[nH]c3ccccc23)cnn1-c1ccccc1 [Compound 3, (5-Amino-1-phenyl-1H-pyrazol-4-yl)-(1H-indol-3-yl)-methanone] | discarded |  |  |  |  |
| Nc1c(C(=O)c2ccc[nH]2)cnn1-c1ccc(F)cc1 [Compound G] |  | about 50% |  |  |  |
| Nc1c(C(=O)C2CCNCC2)cnn1-c1ccc(OC(F)(F)F)cc1 [Compound 5, [5-Amino-1-(4-trifluoromethoxy-phenyl)-1H-pyrazol-4-yl]-piperidin-4-yl-methanone] |  | about 60% | 35% | 60% | able to reduce PrP^Sc in all drug vehicles tested |
